Assay results: US9790201B2, “Piperidine and azepine derivatives as prokineticin receptor modulators” (TAKEDA PHARMACEUTICAL COMPANY LIMITED, priority 2013, dated 2017)

What follows are compounds tested against human PKR1 receptors (Homo sapiens (Human), UniProt Q8TCW9) (assay: PKR1 antagonist assay: block of PK1-mediated intracellular calcium release (FLIPR Tetra)). Conditions: RBL2H3 cells expressing human PKR1; stimulation with PK1 at EC80; calcium fluorescence.
Chain of human PKR1 receptors (Q8TCW9 whole entry): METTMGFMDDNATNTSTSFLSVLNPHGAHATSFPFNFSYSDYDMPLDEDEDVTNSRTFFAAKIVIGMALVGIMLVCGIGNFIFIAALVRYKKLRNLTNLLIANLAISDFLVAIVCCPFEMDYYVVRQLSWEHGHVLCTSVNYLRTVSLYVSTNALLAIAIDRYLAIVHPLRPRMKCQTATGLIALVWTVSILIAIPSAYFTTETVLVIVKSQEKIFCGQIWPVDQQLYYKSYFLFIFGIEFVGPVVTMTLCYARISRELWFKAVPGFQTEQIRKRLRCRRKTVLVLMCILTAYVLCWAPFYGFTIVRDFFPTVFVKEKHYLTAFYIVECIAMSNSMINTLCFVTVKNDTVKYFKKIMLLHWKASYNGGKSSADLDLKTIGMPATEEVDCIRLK
Format: cell-based
Experimental: Prokineticin receptor 1 (PKR1) antagonists may be functionally assessed by measurement of change in intracellular calcium levels induced by Gq mediated increase in inositol triphosphate (IP3) levels. The ability of a compound to block the intracellular release of calcium mediated by PK1 in RBL2H3 cells expressing human PKR1 receptors is determined as a measure of the compound's antagonist activity in vitro.
Approximately 10,000 cells per assay well are seeded in normal culture medium in a 384 well plate (Corning). Twenty-four hours after seeding, the cells are loaded with a calcium sensitive fluorescent dye by replacing the culture medium with assay buffer (1× Hanks buffered saline, 25 mM HEPES, 0.1% w/v fatty acid free BSA (bovine serum albumin), pH 7.4) containing 1 mM probenecid and 1× Calcium 5 Reagent (Molecular Devices). Cells are incubated at 37° C. for 1 hour to allow for dye uptake.
To test for antagonist activity, test compounds at a final concentration range between 0.32 nM-10 μM (diluted in assay buffer) are added to the assay wells and allowed to incubate for 10 minutes prior to stimulation with PK1. After incubation with test compounds the assay plate is placed in a FLIPR Tetra (Molecular Devices) and PK1 (diluted in assay buffer) is added at the determined EC80 concentration (final). Ligand-dependent changes in intracellular calcium levels are determined by measuring changes in fluorescence of the dye at […] following excitation at 485 nm.
For `COc1ccc(C2CCCN(C(=O)c3ccnc(N(C)C)c3)C2)c(C(F)(F)F)c1` (stereo not shown) [Example 62, 4-({3-[4-Methoxy-2-(trifluoromethyl)phenyl]piperidin-1-yl}carbonyl)-N,N-dimethylpyridin-2-amine], the IC50 was 0.1 µM. Work on `CN(C)c1cc(C(=O)N2CCCC(c3ccccc3F)C2)ccn1` (stereo not shown) [Example 1, 4-{[3-(2-Fluorophenyl)piperidin-1-yl]carbonyl}-N,N-dimethylpyridin-2-amine] yielded an IC50 of 1.82 µM. `Cc1ccc(C2CCCN(C(=O)c3ccnc(N(C)C(C)C)c3)C2)cc1` (stereo not shown) [Example 40, N-Methyl-4-{[3-(4-methylphenyl)piperidin-1-yl]carbonyl}-N-(propan-2-yl)pyridin-2-amine] gave an IC50 of 7.03 µM. Work on `CNc1cc(C(=O)N2CCCCC(c3ccc(OC)cc3)C2)cnn1` (stereo not shown) [Example 112, 5-{[3-(4-Methoxyphenyl)azepan-1-yl]carbonyl}-N-methylpyridazin-3-amine] yielded an IC50 of 1.27 µM. `CNc1cc(C(=O)N2CCCC(c3ccc(Cl)cc3C(F)(F)F)C2)ccn1` (stereo not shown) [Example 57, 4-({3-[4-Chloro-2-(trifluoromethyl)phenyl]piperidin-1-yl}carbonyl)-N-methylpyridin-2-amine] showed an IC50 of 0.05 µM. `Cc1cc(Cl)ccc1C1CCCN(C(=O)c2cn(C)nc2C)C1` (stereo not shown) [Example 87, 3-(4-Chloro-2-methylphenyl)-1-[(1,3-dimethyl-1H-pyrazol-4-yl)carbonyl]piperidine] showed an IC50 of 0.2 µM. `O=C(c1cn[nH]c1)N1CCCC(c2ccc(Cl)cc2C(F)(F)F)C1` (stereo not shown) [Example 96, 3-[4-Chloro-2-(trifluoromethyl)phenyl]-1-[(1H-pyrazol-4-yl)carbonyl]piperidine] showed an IC50 of 2.44 µM. In the case of `COc1ccc(C2CCCN(C(=O)c3cn(C)nc3N)C2)c(C)c1` (stereo not shown) [Example 102, 4-{[3-(4-Methoxy-2-methylphenyl)piperidin-1-yl]carbonyl}-1-methyl-1H-pyrazol-3-amine], the IC50 is reported as 1.54 µM. In the case of `CCN(C)c1cc(C(=O)N2CCCC(c3ccc(C)cc3)C2)ccn1` (stereo not shown) [Example 37, N-Ethyl-N-methyl-4-{[3-(4-methylphenyl)piperidin-1-yl]carbonyl}pyridin-2-amine], the IC50 is reported as 5.53 µM. `Cc1cc(Cl)ccc1C1CCCN(C(=O)c2cnn(C)c2N)C1` (stereo not shown) [Example 95, 4-{[3-(4-Chloro-2-methylphenyl)piperidin-1-yl]carbonyl}-1-methyl-1H-pyrazol-5-amine] was tested, and the IC50 was 0.15 µM. Work on `CCOc1cc(C(=O)N2CCCC(c3ccc(Cl)cc3)C2)ccn1` (stereo not shown) [Example 42, 4-{[3-(4-Chlorophenyl)piperidin-1-yl]carbonyl}-2-ethoxypyridine] yielded an IC50 of 8.35 µM. `CCc1cc(C(=O)N2CCCC(c3ccccc3OC)C2)ccn1` (stereo not shown) [Example 59, 2-Ethyl-4-{[3-(2-methoxyphenyl)piperidin-1-yl]carbonyl}pyridine] was tested, and the IC50 was 1.6 µM. With `Cc1ccc(C2CCCN(C(=O)c3ccnc(C)c3)C2)cc1` (stereo not shown) [Example 12, 2-Methyl-4-{[3-(4-methylphenyl)piperidin-1-yl]carbonyl}pyridine] the IC50 was 2.8 µM. In the case of `COc1ccc(C2CCCN(C(=O)c3cn(C)nc3C)C2)c(C)c1` (stereo not shown) [Example 101, 1-[(1,3-Dimethyl-1H-pyrazol-4-yl)carbonyl]-3-(4-methoxy-2-methylphenyl)piperidine], the IC50 is reported as 1.03 µM. `CN(C)c1cc(C(=O)N2CCCC(c3ccccc3OC(F)F)C2)ccn1` (stereo not shown) [Example 66, 4-({3-[2-(Difluoromethoxy)phenyl]piperidin-1-yl}carbonyl)-N,N-dimethylpyridin-2-amine] showed an IC50 of 0.7 µM. For `COc1ccc(C2CCCN(C(=O)c3cnnc(N(C)C)c3)C2)c(C)c1` (stereo not shown) [Example 80, 5-{[3-(4-Methoxy-2-methylphenyl)piperidin-1-yl]carbonyl}-N,N-dimethylpyridazin-3-amine], the IC50 was 0.16 µM. For `CN(C)c1cc(C(=O)N2C=C(c3ccc(Cl)cc3)CCC2)ccn1` [Example 104, 4-{[5-(4-Chlorophenyl)-1,2,3,4-tetrahydropyridin-1-yl]carbonyl}-N,N-dimethylpyridin-2-amine], the IC50 was 0.42 µM. With `CCc1cc(C(=O)N2CCCC(c3ccccc3C(F)(F)F)C2)ccn1` (stereo not shown) [Example 58, 2-Ethyl-4-({3-[2-(trifluoromethyl)phenyl]piperidin-1-yl}carbonyl)pyridine] the IC50 was 0.82 µM. `Cc1ccc(C2CCCN(C(=O)c3ccnc(N(C)C)c3)C2)cc1` (single isomer, unassigned) [Example 51, N,N-Dimethyl-4-{[3-(4-methylphenyl)piperidin-1-yl]carbonyl}pyridin-2-amine] showed an IC50 of 0.31 µM. Work on `Cc1nn(C)cc1C(=O)N1CCCC(c2ccc(Cl)cc2)C1` (stereo not shown) [Example 88, 3-(4-Chlorophenyl)-1-[(1,3-dimethyl-1H-pyrazol-4-yl)carbonyl]piperidine] yielded an IC50 of 1.82 µM. `Cc1cc(C(=O)N2CCCC(c3ccc(Cl)cc3)C2)cc(C)n1` (stereo not shown) [Example 28, 4-{[3-(4-Chlorophenyl)piperidin-1-yl]carbonyl}-2,6-dimethylpyridine] was tested, and the IC50 was 1.33 µM. Compound `Cc1cc(Cl)ccc1C1(O)CCCN(C(=O)c2ccnc(N(C)C)c2)C1` (stereo not shown) [Example 116, 3-(4-Chloro-2-methylphenyl)-1-{[2-(dimethylamino)pyridin-4-yl]carbonyl}piperidin-3-ol] has an IC50 of 1.36 µM. Compound `CC(C)Nc1cc(C(=O)N2CCCC(c3ccc(Cl)cc3)C2)ccn1` (stereo not shown) [Example 8, 4-{[3-(4-Chlorophenyl)piperidin-1-yl]carbonyl}-N-(propan-2-yl)pyridin-2-amine] has an IC50 of 3.27 µM. `CNc1cc(C(=O)N2CCCC(c3ccc(C(F)(F)F)cc3)C2)ccn1` (stereo not shown) [Example 53, N-Methyl-4-({3-[4-(trifluoromethyl)phenyl]piperidin-1-yl}carbonyl)pyridin-2-amine] gave an IC50 of 2.92 µM. With `CNc1cc(C(=O)N2CCC[C@@H](c3ccc(Cl)cc3C)C2)cnn1` (single isomer, unassigned) [Example 73] the IC50 was 1.18 µM. `CN(C)c1cc(C(=O)N2CCCCC(c3ccc(Cl)cc3)C2)cnn1` (stereo not shown) [Example 115, 5-{[3-(4-Chlorophenyl)azepan-1-yl]carbonyl}-N,N-dimethylpyridazin-3-amine] was tested, and the IC50 was 1.44 µM. `O=C(c1cnnc(N2CCC2)c1)N1CCCC(c2ccc(Cl)cc2C(F)(F)F)C1` (stereo not shown) [Example 77, 3-(Azetidin-1-yl)-5-({3-[4-chloro-2-(trifluoromethyl)phenyl]piperidin-1-yl}carbonyl)pyridazine] showed an IC50 of 0.73 µM. With `CNc1cc(C(=O)N2CCCCC(c3ccc(Cl)cc3)C2)cnn1` (stereo not shown) [Example 113, 5-{[3-(4-Chlorophenyl)azepan-1-yl]carbonyl}-N-methylpyridazin-3-amine] the IC50 was 0.93 µM. With `Cn1cc(C(=O)N2CCCC(c3ccc(Cl)cc3C(F)(F)F)C2)c(N)n1` (single isomer, unassigned) [Example 118, 4-({3-[4-Chloro-2-(trifluoromethyl)phenyl]piperidin-1-yl}carbonyl)-1-methyl-1H-pyrazol-3-amine] the IC50 was > 10 µM. `CCOc1cc(Cl)ccc1C1CCCN(C(=O)c2cnnc(N(C)C)c2)C1` (stereo not shown) [Example 84, 5-{[3-(4-Chloro-2-ethoxyphenyl)piperidin-1-yl]carbonyl}-N,N-dimethylpyridazin-3-amine] was tested, and the IC50 was 0.09 µM. Work on `CNc1cc(C(=O)N2CCCC(c3ccc(C(F)(F)F)cc3OC)C2)cnn1` (stereo not shown) [Example 78, 5-({3-[2-Methoxy-4-(trifluoromethyl)phenyl]piperidin-1-yl}carbonyl)-N-methylpyridazin-3-amine] yielded an IC50 of 3 µM. `CN(C)c1cc(C(=O)N2CCCC(c3ccccc3C#N)C2)ccn1` (stereo not shown) [Example 67, 2-(1-{[2-(Dimethylamino)pyridin-4-yl]carbonyl}piperidin-3-yl)benzonitrile] was tested, and the IC50 was 2.26 µM. In the case of `Cc1cc(Cl)ccc1C1CCCN(C(=O)c2cnn(C)c2)C1` (stereo not shown) [Example 94, 3-(4-Chloro-2-methylphenyl)-1-[(1-methyl-1H-pyrazol-4-yl)carbonyl]piperidine], the IC50 is reported as 0.17 µM. Compound `CNc1cc(C(=O)N2CCCC(c3ccc(OC)cc3C(F)(F)F)C2)cnn1` (stereo not shown) [Example 81, 5-({3-[4-Methoxy-2-(trifluoromethyl)phenyl]piperidin-1-yl}carbonyl)-N-methylpyridazin-3-amine] has an IC50 of 0.13 µM. `Cc1ccc(C2CCCN(C(=O)c3ccnc(N4CCCC4)c3)C2)cc1` (stereo not shown) [Example 35, 4-{[3-(4-Methylphenyl)piperidin-1-yl]carbonyl}-2-(pyrrolidin-1-yl)pyridine] was tested, and the IC50 was 8.82 µM. `CN(C)c1cc(C(=O)N2CCCC(c3ccc(F)cc3Cl)C2)ccn1` (stereo not shown) [Example 26, 4-{[3-(2-Chloro-4-fluorophenyl)piperidin-1-yl]carbonyl}-N,N-dimethylpyridin-2-amine] was tested, and the IC50 was 0.47 µM. `CNc1cc(C(=O)N2CCCC(c3ccc(C)cc3)C2)ccn1` (stereo not shown) [Example 11, N-Methyl-4-{[3-(4-methylphenyl)piperidin-1-yl]carbonyl}pyridin-2-amine] showed an IC50 of 0.29 µM. `CNc1cc(C(=O)N2CCCC(c3ccc(Cl)cc3C(F)(F)F)C2)cnn1` (stereo not shown) [Example 76, 5-({3-[4-Chloro-2-(trifluoromethyl)phenyl]piperidin-1-yl}carbonyl)-N-methylpyridazin-3-amine] gave an IC50 of 0.08 µM. `CN(C)c1cc(C(=O)N2CCCC(c3ccc(F)cc3)C2)ccn1` (stereo not shown) [Example 19, 4-{[3-(4-Fluorophenyl)piperidin-1-yl]carbonyl}-N,N-dimethylpyridin-2-amine] was tested, and the IC50 was 1.22 µM. Work on `O=C(c1ccnc(C2CC2)c1)N1CCCC(c2ccc(Cl)cc2)C1` (stereo not shown) [Example 3, 4-{[3-(4-Chlorophenyl)piperidin-1-yl]carbonyl}-2-cyclopropylpyridine] yielded an IC50 of 1.74 µM.
